Assay results reported in patent US6126940A, “Hair-growing agent comprised of proanthocyanidins” (Kyowa Hakko Kogyo Co., Ltd., priority 1994, dated 2000).

Test system: dd mice
Test: Acute Toxicity
Type: in vivo, mouse (male dd)
Settings: subcutaneous, 2000 mg/kg, five male dd mice

Question: How did the mortality turn out when `Oc1cc(O)c2c(c1)O[C@H](c1ccc(O)c(O)c1)[C@H](O)[C@H]2c1c(O)cc(O)c2c1O[C@H](c1ccc(O)c(O)c1)[C@H](O)C2` [Compound 2, epicatechin-(4β→8)-epicatechin] was run?
Answer: none of the mice died
